Converted amounts (≈) assume the structure as drawn.
Key:
Assay type in all cases: functional
[1] = test system: Trichophyton mentagrophytes; experiment: Antimicrobial activity against Trichophyton mentagrophytes
Candida albicans = experiment: Antimicrobial activity against Candida albicans
Staphylococcus aureus = experiment: Antimicrobial activity against Staphylococcus aureus
Micrococcus luteus = experiment: Antimicrobial activity against Micrococcus luteus
Aspergillus niger = experiment: Antimicrobial activity against Aspergillus niger
Cryptococcus neoformans = experiment: Antimicrobial activity against Cryptococcus neoformans

MIC [1] [µg/mL]	MIC (Candida albicans) [µg/mL]	MIC (Staphylococcus aureus) [µg/mL]	MIC (Micrococcus luteus) [µg/mL]	MIC (Aspergillus niger) [µg/mL]	MIC (Cryptococcus neoformans) [µg/mL]	SMILES
> 25	> 25	> 25	> 25	> 25	> 25	C[N+](C)(C)CCCOc1c(Br)cc(C/C(=N\O)C(=O)NCCc2nc(N)[nH]c2-c2cc(O)c3[nH]cc(O)c(=O)c3c2O)cc1Br [TYROKERADINE A]
25 (≈ 35.2 µM)	12.5 (≈ 17.6 µM)	25 (≈ 35.2 µM)	25 (≈ 35.2 µM)	12.5 (≈ 17.6 µM)	12.5 (≈ 17.6 µM)	NCCCOc1c(Br)cc(C/C(=N\O)C(=O)NCCc2nc(N)[nH]c2-c2cc(O)c3[nH]cc(O)c(=O)c3c2O)cc1Br [TYROKERADINE B]

Source: ChEMBL document CHEMBL1153275, “Tyrokeradines A and B, new bromotyrosine alkaloids with an imidazolyl-quinolinone moiety from a verongid sponge” (2009)
